The subject of assay [1] is PC3-PSMA xenograft. In words: In vivo combination study of ^225Ac-Compound I and elimusertib in PC3-PSMA tumor xenograft bearing mouse model. Particulars: 1.23 MBq/kg [^225Ac]-Compound I single i.v. dose combined with elimusertib 5, 20 and 40 mg/kg; compared to either monotherapy or vehicle. Here is the method:
Groups of mice (n=5/group) were treated with ^225Ac-Compound I, administered as a single dose (intravenous), at a dose sub-optimal for monotherapeutic efficacy (1.23 MBq/kg or 1 μCi, based on 30 g mice). […] Tumor measurements were taken 2-3 times per week and used to calculate tumor volume. Study duration was 61 days after initial therapeutic administration.
Tumor growth was tracked over time and expressed as Relative Tumor Volume (RTV; tumor volume on day X divided by initial tumor volume on day 0) (FIGS. 4A-4C).

The subject of assay [2] is PC3-PSMA xenograft. In words: In vivo combination study of ^225Ac-Compound I and olaparib in PC3-PSMA tumor xenograft bearing mouse model. Here is the method:
An in vivo combination study was conducted with ^225Ac-Compound I and olaparib using a PSMA overexpressing PC3 (PC3-PSMA, prostate cancer) tumor xenograft bearing mouse model. Groups of mice (n=5/group) were treated with ^225Ac-Compound I administered as a single dose (intravenous), at a dose sub-optimal for monotherapeutic efficacy (1.23 MBq/kg or 1 μCi, based on 30 g mice). Additional groups of mice (n=5/group) were dosed daily with olaparib (oral gavage) using a dose range of 25, 50, or 100 mg/kg for 28 consecutive days in combination with ^225Ac-Compound I. Olaparib dosing started on the same day that ^225Ac-Compound I was dosed (FIG. 1). Olaparib monotherapy and vehicle control groups (n=5/group) were included as controls. Tumor measurements were taken 2-3 times per week and used to calculate tumor volume. Study duration was for 50 days after initial therapeutic administration.
Tumor growth in study animals was tracked over time and expressed as Relative Tumor Volume (RTV; tumor volume on day X divided by initial tumor volume on day 0) (FIGS. 2A-2C). Single agent olaparib monotherapy was found ineffective at all dose levels tested.

Structures are written as SMILES.

For the compound `O=C(O)CC[C@H](NC(=O)N[C@@H](CCCCNC(=O)CCCCCCC(=O)NCCCC[C@@H](NC(=O)[C@@H](Cc1ccccc1)NC(=O)[C@@H](Cc1ccc(O)c(I)c1)NC(=O)CCC(C(=O)O)N1CCN(CC(=O)O)CCN(CC(=O)O)CCN(CC(=O)O)CC1)C(=O)O)C(=O)O)C(=O)O` (stereo partly drawn) [[^225Ac]-Compound I, metal not drawn], the “Tumor growth inhibition (Relative Tumor Volume)” value is on record as “enhanced tumor growth inhibition” in assay [1] and “enhanced tumor growth inhibition” in assay [2] (1.23 MBq/kg [^225Ac]-Compound I single i.v. dose combined with olaparib 25, 50 or 100 mg/kg daily, compared to either monotherapy or vehicle).

As for `O=C(c1cc(Cc2n[nH]c(=O)c3ccccc23)ccc1F)N1CCN(C(=O)C2CC2)CC1` [olaparib, reference compound], the “Tumor growth (Relative Tumor Volume)” value in assay [2] (single agent olaparib monotherapy, oral gavage daily for 28 days, all dose levels tested (25, 50, 100 mg/kg)) is given as “ineffective”.
